From patent publication US20100189648A1, “INHIBITORS FOR DISRUPTING THE INTERACTION OF UBIQUITINATION RELATED ENZYMES AND USES THEREOF” (priority 2006, published 2010)
In brackets after ≈: the same amount, converted by molar mass. Where two headings read alike, the source gives them in different places.

Key:
Type in all cases: cell-based, human
SKOV3 = assay: MTT survival assay, ovarian cancer cell line (SKOV3); details: SKOV3 (second table)
Method: (§1) The effect of the above identified compounds on anti-tumor activity in human carcinoma cells was determined by the MTT survival assay. The MTT assay is a commonly used method in evaluation of cell survival, based on the ability of viable cells to convert MTT (MTT, Sigma, Cat No. 044K5307), a soluble tetrazolium salt [3-(4,5-dimethylthuazole-2-yl)-2,5 diphenyl tetrazolium bromide], into an insoluble formazan precipitate, which is quantitated by spectrophotometry following solubilization in dimethyl sulfoxide (DMSO).
(§2) In brief, different carcinoma cells were treated with negative control, various test articles at different concentration, and positive control (DDP), in 96-well tissue culture dishes. Each test article at different concentration is repeated 3 times.
(§3) Different carcinoma cells were diluted with 10% FBS and RPM1640 or MEM media to a concentration of 3-5×10^4 per ml suspension. 100 microliter of cells were incubated in each well in 96-well tissue culture dishes at 37 C. The cells were incubated at 37 C on the first day. On the second day, media supernatant was removed and replaced with media and different concentration of test articles (100 microliter in each well). Three Negative control wells and three positive control (DDP) wells were also included. The 96-well plate were incubated at 37 C for another 68 hours. After 68 hours, supernatant of each well was removed. 100 microliter of 1 mg/ml MTT diluted in PBS was injected into each well. The cells were incubated at 37 C for another 4 hours. The cells were then solubilized in 150 microliter DMSO, mixed for 10 minutes and absorbance readings were taken using Microplate reader Bio-Rad Model 550 at 570 nm. IR (cell growth inhibition rate) % was calculated as (OD570 of negative control-OD570 with test article)/OD570 of negative control. IC50 (cell 50% inhibition concentration) at 95% confidence level was calculated with Bliss method.

Hela cells = assay: MTT survival assay, cervical cancer line (Hela cells); details: for IC50: Homo sapiens
Method: as §1, §2, §3

A459 = assay: MTT survival assay, lung cancer cell line (A459); details: A459 Experiment #2; for IC50: Homo sapiens
Method: as §1, §2, §3

MCF-7 = assay: MTT survival assay, breast cancer cell line (MCF-7); details: for IC50: Homo sapiens
Method: as §1, §2, §3

SMMC-7721 = assay: MTT survival assay, liver cancer cell line (SMMC-7721); details: SMMC-7721 Experiment #2; for IC50: Homo sapiens
Method: as §1, §2, §3

U251 = assay: MTT survival assay, glioma cell line (brain tumor U251); details: U251 (second table)
Method: as §1, §2, §3

[1] = 95% confidence limits of IC50, read-out: IC50 (95% confidence level), interval
[2] = Bliss method, unit not printed (concentrations in μg/ml), read-out: IC50 (95% confidence level)

Question: For `Cc1ccc(S(=O)(=O)NCC(=O)NCC(c2ccccc2)c2c[nH]c3ccccc23)cc1` (centres unmarked) [Mol 640], which IC50 (SKOV3; Homo sapiens, SK-OV-3, Bliss method, unit not printed (concentrations in μg/ml), read-out: IC50 (95% confidence level)) is on record?
Answer: 26.9 µg/mL (≈ 60 µM)

Question: And the “IR (%)” value (SKOV3; 3.125 μg/ml)?
Answer: 0%

Question: And the “OD(A570 nm)” value (SKOV3; 3.125 μg/ml)?
Answer: 0.716 ± 0.048

Question: And the “IR (%)” value (SKOV3; 6.25 μg/ml)?
Answer: 10.3%

Question: And the “OD(A570 nm)” value (SKOV3; 6.25 μg/ml)?
Answer: 0.628 ± 0.025

Question: And the “IR (%)” value (SKOV3; 12.5 μg/ml)?
Answer: 9.7%

Question: And the “OD(A570 nm)” value (SKOV3; 12.5 μg/ml)?
Answer: 0.632 ± 0.020

Question: And the “IR (%)” value (SKOV3; 25 μg/ml)?
Answer: 43.8%

Question: What about the “OD(A570 nm)” value (SKOV3; 25 μg/ml) of the same compound?
Answer: 0.394 ± 0.037

Question: What about the “IR (%)” value (SKOV3; 50 μg/ml) of the same compound?
Answer: 88.3%

Question: And the “OD(A570 nm)” value (SKOV3; 50 μg/ml)?
Answer: 0.082 ± 0.008

Question: And the “IR (%)” value (SKOV3; 100 μg/ml)?
Answer: 88.7%

Question: And the “OD(A570 nm)” value (SKOV3; 100 μg/ml)?
Answer: 0.079 ± 0.010

Question: And the “IR (%)” value (Hela cells; 0.41 μg/ml)?
Answer: 12.3%

Question: What about the “OD(A570 nm)” value (Hela cells; 0.41 μg/ml) of the same compound?
Answer: 0.651 ± 0.044

Question: And the “OD(A570 nm)” value (Hela cells; 1.23 μg/ml)?
Answer: 0.826 ± 0.101

Question: And the “OD(A570 nm)” value (Hela cells; 3.70 μg/ml)?
Answer: 0.819 ± 0.085

Question: And the “IR (%)” value (Hela cells; 11.11 μg/ml)?
Answer: 12.2%

Question: And the “OD(A570 nm)” value (Hela cells; 11.11 μg/ml)?
Answer: 0.652 ± 0.057

Question: And the “IR (%)” value (Hela cells; 33.33 μg/ml)?
Answer: 76.8%

Question: What about the “OD(A570 nm)” value (Hela cells; 33.33 μg/ml) of the same compound?
Answer: 0.172 ± 0.010

Question: What about the “IR (%)” value (Hela cells; 100 μg/ml) of the same compound?
Answer: 89.5%

Question: And the “OD(A570 nm)” value (Hela cells; 100 μg/ml)?
Answer: 0.078 ± 0.023

Question: What about the IC50 (Hela cells; [1]) of the same compound?
Answer: 21.9 to 29.1 µg/mL (≈ 49 to 65.1 µM)

Question: What about the IC50 (Hela cells; [2]) of the same compound?
Answer: 25.3 µg/mL (≈ 56.4 µM)

Question: What about the “IR (%)” value (A459; 3.125 μg/ml) of the same compound?
Answer: −22.6%

Question: What about the “OD(A570 nm)” value (A459; 3.125 μg/ml) of the same compound?
Answer: 0.781 ± 0.040

Question: And the “IR (%)” value (A459; 6.25 μg/ml)?
Answer: −12.5%

Question: What about the “OD(A570 nm)” value (A459; 6.25 μg/ml) of the same compound?
Answer: 0.717 ± 0.020

Question: And the “IR (%)” value (A459; 12.5 μg/ml)?
Answer: 6.9%

Question: And the “OD(A570 nm)” value (A459; 12.5 μg/ml)?
Answer: 0.593 ± 0.034

Question: What about the “IR (%)” value (A459; 25 μg/ml) of the same compound?
Answer: 63.6%

Question: What about the “OD(A570 nm)” value (A459; 25 μg/ml) of the same compound?
Answer: 0.232 ± 0.006

Question: And the “IR (%)” value (A459; 50 μg/ml)?
Answer: 87.2%

Question: What about the “OD(A570 nm)” value (A459; 50 μg/ml) of the same compound?
Answer: 0.081 ± 0.010

Question: What about the “IR (%)” value (A459; 100 μg/ml) of the same compound?
Answer: 87.1%

Question: What about the “OD(A570 nm)” value (A459; 100 μg/ml) of the same compound?
Answer: 0.082 ± 0.014

Question: And the IC50 (A459; [1])?
Answer: 25.5 to 26.1 µg/mL (≈ 57 to 58.4 µM)

Question: What about the IC50 (A459; [2]) of the same compound?
Answer: 25.8 µg/mL (≈ 57.7 µM)

Question: What about the “IR (%)” value (MCF-7; 3.125 μg/ml) of the same compound?
Answer: 10.5%

Question: What about the “OD(A570 nm)” value (MCF-7; 3.125 μg/ml) of the same compound?
Answer: 0.807 ± 0.016

Question: And the “IR (%)” value (MCF-7; 6.25 μg/ml)?
Answer: 21.5%

Question: What about the “OD(A570 nm)” value (MCF-7; 6.25 μg/ml) of the same compound?
Answer: 0.708 ± 0.058

Question: And the “IR (%)” value (MCF-7; 12.5 μg/ml)?
Answer: 28.1%

Question: And the “OD(A570 nm)” value (MCF-7; 12.5 μg/ml)?
Answer: 0.649 ± 0.036

Question: And the “IR (%)” value (MCF-7; 25 μg/ml)?
Answer: 89.6%

Question: And the “OD(A570 nm)” value (MCF-7; 25 μg/ml)?
Answer: 0.094 ± 0.012

Question: And the “IR (%)” value (MCF-7; 50 μg/ml)?
Answer: 89.1%

Question: And the “OD(A570 nm)” value (MCF-7; 50 μg/ml)?
Answer: 0.098 ± 0.012

Question: And the “IR (%)” value (MCF-7; 100 μg/ml)?
Answer: 92.3%

Question: And the “OD(A570 nm)” value (MCF-7; 100 μg/ml)?
Answer: 0.069 ± 0.007

Question: And the IC50 (MCF-7; MCF7, 95% confidence limits of IC50, read-out: IC50 (95% confidence level), interval)?
Answer: 12.3 to 16.1 µg/mL (≈ 27.6 to 36 µM)

Question: What about the IC50 (MCF-7; MCF7, Bliss method, unit not printed (concentrations in μg/ml), read-out: IC50 (95% confidence level)) of the same compound?
Answer: 14.1 µg/mL (≈ 31.5 µM)

Question: What about the IC50 (SMMC-7721; [1]) of the same compound?
Answer: 7.68 to 8.36 µg/mL (≈ 17.2 to 18.7 µM)

Question: And the IC50 (SMMC-7721; [2])?
Answer: 8.02 µg/mL (≈ 17.9 µM)

Question: What about the “IR (%)” value (SMMC-7721; 3.125 μg/ml) of the same compound?
Answer: 53.4%

Question: And the “OD(A570 nm)” value (SMMC-7721; 3.125 μg/ml)?
Answer: 0.215 ± 0.008

Question: What about the “IR (%)” value (SMMC-7721; 6.25 μg/ml) of the same compound?
Answer: 39.8%

Question: And the “OD(A570 nm)” value (SMMC-7721; 6.25 μg/ml)?
Answer: 0.278 ± 0.013

Question: And the “IR (%)” value (SMMC-7721; 12.5 μg/ml)?
Answer: 41.9%

Question: And the “OD(A570 nm)” value (SMMC-7721; 12.5 μg/ml)?
Answer: 0.268 ± 0.013

Question: What about the “IR (%)” value (SMMC-7721; 25 μg/ml) of the same compound?
Answer: 56.6%

Question: What about the “OD(A570 nm)” value (SMMC-7721; 25 μg/ml) of the same compound?
Answer: 0.200 ± 0.002

Question: What about the “IR (%)” value (SMMC-7721; 50 μg/ml) of the same compound?
Answer: 80.2%

Question: What about the “OD(A570 nm)” value (SMMC-7721; 50 μg/ml) of the same compound?
Answer: 0.091 ± 0.002

Question: And the “IR (%)” value (SMMC-7721; 100 μg/ml)?
Answer: 78.7%

Question: What about the “OD(A570 nm)” value (SMMC-7721; 100 μg/ml) of the same compound?
Answer: 0.098 ± 0.014

Question: And the IC50 (U251; Homo sapiens, U-251, Bliss method, unit not printed (concentrations in μg/ml), read-out: IC50 (95% confidence level))?
Answer: 11.7 µg/mL (≈ 26 µM)

Question: What about the “IR (%)” value (U251; 3.125 μg/ml) of the same compound?
Answer: 9.2%

Question: What about the “OD(A570 nm)” value (U251; 3.125 μg/ml) of the same compound?
Answer: 0.796 ± 0.055

Question: And the “IR (%)” value (U251; 6.25 μg/ml)?
Answer: 20.6%

Question: What about the “OD(A570 nm)” value (U251; 6.25 μg/ml) of the same compound?
Answer: 0.696 ± 0.054

Question: What about the “IR (%)” value (U251; 12.5 μg/ml) of the same compound?
Answer: 59.6%

Question: What about the “OD(A570 nm)” value (U251; 12.5 μg/ml) of the same compound?
Answer: 0.354 ± 0.021

Question: What about the “IR (%)” value (U251; 25 μg/ml) of the same compound?
Answer: 90.3%

Question: And the “OD(A570 nm)” value (U251; 25 μg/ml)?
Answer: 0.085 ± 0.012

Question: And the “IR (%)” value (U251; 50 μg/ml)?
Answer: 90.1%

Question: And the “OD(A570 nm)” value (U251; 50 μg/ml)?
Answer: 0.087 ± 0.012

Question: And the “IR (%)” value (U251; 100 μg/ml)?
Answer: 89.7%

Question: What about the “OD(A570 nm)” value (U251; 100 μg/ml) of the same compound?
Answer: 0.090 ± 0.014
